Results published in ChEMBL document CHEMBL3991601, “The target landscape of clinical kinase drugs” (Science, 2017).
The source made the active and inactive calls. For most assays here, no stated cut-off is given here; in the data, actives have a measured Kd and inactives only a lower limit.

Columns and labels:
[1] = target: Dual specificity mitogen-activated protein kinase kinase 2 (Homo sapiens, UniProt P36507)
[2] = target: T1, Mitogen-activated protein kinase kinase kinase 3 (Homo sapiens, UniProt Q99759)
T1 sequence (Q99759 whole entry): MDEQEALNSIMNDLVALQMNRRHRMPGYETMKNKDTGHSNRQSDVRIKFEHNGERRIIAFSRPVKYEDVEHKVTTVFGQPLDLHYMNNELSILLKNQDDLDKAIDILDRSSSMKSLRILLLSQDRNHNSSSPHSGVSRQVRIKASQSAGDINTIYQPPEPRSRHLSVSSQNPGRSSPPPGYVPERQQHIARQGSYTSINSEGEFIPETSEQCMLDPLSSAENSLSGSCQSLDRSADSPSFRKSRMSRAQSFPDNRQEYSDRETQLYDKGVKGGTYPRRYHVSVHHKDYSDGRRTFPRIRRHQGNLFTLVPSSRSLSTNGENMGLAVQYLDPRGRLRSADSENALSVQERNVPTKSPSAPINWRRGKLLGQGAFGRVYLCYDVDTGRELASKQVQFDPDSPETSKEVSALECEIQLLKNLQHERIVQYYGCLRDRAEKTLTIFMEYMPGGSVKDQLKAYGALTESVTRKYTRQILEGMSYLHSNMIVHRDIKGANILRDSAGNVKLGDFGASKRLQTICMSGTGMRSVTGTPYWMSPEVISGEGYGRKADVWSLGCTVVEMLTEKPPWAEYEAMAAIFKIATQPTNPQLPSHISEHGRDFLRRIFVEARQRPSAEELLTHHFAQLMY

[3] = target: 5'-AMP-activated protein kinase catalytic subunit alpha-1 (Homo sapiens, UniProt Q13131)
[4] = target: Serine/threonine-protein kinase MRCK beta (Homo sapiens, UniProt Q9Y5S2)
Pyridoxal kinase = target: T2, Pyridoxal kinase (Homo sapiens, UniProt O00764)
T2 sequence (O00764 whole entry): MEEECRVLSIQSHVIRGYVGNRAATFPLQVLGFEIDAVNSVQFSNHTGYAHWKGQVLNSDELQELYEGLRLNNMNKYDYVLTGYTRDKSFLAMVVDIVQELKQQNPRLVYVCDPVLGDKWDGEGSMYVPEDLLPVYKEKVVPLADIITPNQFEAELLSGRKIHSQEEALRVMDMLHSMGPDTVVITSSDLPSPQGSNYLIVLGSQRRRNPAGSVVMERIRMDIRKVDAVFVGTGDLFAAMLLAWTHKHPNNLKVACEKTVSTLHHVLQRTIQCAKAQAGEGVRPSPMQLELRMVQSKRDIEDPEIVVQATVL

[5] = target: Structural maintenance of chromosomes protein 2 (Homo sapiens, UniProt O95347)
[6] = target: T3, Serine/threonine-protein kinase LATS1 (Homo sapiens, UniProt O95835)
T3 sequence (O95835 whole entry): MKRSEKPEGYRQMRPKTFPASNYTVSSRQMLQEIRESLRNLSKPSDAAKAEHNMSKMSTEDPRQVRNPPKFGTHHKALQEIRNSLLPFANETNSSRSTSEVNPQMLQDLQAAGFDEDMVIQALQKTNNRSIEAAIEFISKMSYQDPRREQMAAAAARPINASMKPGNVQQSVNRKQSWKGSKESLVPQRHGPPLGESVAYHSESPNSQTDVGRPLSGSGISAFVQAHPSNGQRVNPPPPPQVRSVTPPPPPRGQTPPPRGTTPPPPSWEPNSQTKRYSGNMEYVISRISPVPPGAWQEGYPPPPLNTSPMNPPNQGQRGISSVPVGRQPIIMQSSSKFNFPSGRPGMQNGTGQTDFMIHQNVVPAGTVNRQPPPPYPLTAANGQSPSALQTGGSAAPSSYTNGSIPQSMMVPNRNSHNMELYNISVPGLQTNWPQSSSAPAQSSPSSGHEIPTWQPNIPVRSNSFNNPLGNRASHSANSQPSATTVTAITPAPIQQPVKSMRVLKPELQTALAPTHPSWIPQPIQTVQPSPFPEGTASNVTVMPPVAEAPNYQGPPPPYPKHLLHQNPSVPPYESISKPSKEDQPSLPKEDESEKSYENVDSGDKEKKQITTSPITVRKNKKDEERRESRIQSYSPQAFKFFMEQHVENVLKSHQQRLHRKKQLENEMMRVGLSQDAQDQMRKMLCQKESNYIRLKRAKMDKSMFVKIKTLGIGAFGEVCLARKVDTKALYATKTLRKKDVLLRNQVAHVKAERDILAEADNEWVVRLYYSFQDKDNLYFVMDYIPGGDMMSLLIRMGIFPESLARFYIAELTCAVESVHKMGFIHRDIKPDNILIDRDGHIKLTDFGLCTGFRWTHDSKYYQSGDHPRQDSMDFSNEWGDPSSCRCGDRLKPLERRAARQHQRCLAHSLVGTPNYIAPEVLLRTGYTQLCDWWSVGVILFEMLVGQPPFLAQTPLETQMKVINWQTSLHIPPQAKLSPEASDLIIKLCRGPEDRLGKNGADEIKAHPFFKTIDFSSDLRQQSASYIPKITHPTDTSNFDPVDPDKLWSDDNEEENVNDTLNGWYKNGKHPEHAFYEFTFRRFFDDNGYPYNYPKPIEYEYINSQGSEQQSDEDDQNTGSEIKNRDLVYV

[7] = target: Mitogen-activated protein kinase kinase kinase 1 (Homo sapiens, UniProt Q13233)
[8] = target: Mitogen-activated protein kinase kinase kinase 4 (Homo sapiens, UniProt Q9Y6R4)
[9] = target: T4, Dual specificity mitogen-activated protein kinase kinase 3 (Homo sapiens, UniProt P46734)
T4 sequence (P46734 whole entry): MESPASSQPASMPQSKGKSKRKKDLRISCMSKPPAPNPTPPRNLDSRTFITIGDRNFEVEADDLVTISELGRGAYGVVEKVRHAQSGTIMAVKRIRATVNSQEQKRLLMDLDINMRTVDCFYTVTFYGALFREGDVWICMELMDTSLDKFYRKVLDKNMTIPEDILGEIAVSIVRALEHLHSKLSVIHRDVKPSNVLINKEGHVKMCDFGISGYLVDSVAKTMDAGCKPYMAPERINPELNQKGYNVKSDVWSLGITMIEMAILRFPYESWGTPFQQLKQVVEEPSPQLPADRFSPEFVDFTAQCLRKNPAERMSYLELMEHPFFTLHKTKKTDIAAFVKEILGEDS

[10] = target: Mitogen-activated protein kinase kinase kinase kinase 4 (Homo sapiens, UniProt O95819)
[11] = target: Bone morphogenetic protein receptor type-1B (Homo sapiens, UniProt O00238)
[12] = target: Serine/threonine-protein kinase 10 (Homo sapiens, UniProt O94804)
Sequence of Serine/threonine-protein kinase 10 (O94804 whole entry): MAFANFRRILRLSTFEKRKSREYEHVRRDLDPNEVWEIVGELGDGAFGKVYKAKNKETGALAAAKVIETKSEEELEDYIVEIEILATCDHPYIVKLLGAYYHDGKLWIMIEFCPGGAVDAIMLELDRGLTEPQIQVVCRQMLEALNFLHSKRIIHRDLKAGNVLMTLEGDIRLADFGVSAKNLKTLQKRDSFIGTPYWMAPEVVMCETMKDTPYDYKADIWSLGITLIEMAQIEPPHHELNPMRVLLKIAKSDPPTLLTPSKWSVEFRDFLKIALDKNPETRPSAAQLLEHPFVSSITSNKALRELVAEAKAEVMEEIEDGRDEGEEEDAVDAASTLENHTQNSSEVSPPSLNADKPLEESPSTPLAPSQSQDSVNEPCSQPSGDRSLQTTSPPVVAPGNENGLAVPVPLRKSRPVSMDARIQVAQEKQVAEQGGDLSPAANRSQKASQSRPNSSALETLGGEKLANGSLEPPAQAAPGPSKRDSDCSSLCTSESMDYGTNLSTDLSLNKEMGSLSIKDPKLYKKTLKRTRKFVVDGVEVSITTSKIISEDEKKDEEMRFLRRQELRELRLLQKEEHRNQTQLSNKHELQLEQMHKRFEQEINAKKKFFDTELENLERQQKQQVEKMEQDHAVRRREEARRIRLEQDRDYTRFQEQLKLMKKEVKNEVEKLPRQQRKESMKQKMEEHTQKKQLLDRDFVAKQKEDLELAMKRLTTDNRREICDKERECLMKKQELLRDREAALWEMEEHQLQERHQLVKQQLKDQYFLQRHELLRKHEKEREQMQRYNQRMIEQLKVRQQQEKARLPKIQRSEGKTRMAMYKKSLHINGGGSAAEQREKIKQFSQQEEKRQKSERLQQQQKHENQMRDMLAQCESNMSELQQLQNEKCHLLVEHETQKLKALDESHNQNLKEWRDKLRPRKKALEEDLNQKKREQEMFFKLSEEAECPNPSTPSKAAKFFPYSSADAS

Sequence of Serine/threonine-protein kinase MRCK beta (Q9Y5S2 whole entry): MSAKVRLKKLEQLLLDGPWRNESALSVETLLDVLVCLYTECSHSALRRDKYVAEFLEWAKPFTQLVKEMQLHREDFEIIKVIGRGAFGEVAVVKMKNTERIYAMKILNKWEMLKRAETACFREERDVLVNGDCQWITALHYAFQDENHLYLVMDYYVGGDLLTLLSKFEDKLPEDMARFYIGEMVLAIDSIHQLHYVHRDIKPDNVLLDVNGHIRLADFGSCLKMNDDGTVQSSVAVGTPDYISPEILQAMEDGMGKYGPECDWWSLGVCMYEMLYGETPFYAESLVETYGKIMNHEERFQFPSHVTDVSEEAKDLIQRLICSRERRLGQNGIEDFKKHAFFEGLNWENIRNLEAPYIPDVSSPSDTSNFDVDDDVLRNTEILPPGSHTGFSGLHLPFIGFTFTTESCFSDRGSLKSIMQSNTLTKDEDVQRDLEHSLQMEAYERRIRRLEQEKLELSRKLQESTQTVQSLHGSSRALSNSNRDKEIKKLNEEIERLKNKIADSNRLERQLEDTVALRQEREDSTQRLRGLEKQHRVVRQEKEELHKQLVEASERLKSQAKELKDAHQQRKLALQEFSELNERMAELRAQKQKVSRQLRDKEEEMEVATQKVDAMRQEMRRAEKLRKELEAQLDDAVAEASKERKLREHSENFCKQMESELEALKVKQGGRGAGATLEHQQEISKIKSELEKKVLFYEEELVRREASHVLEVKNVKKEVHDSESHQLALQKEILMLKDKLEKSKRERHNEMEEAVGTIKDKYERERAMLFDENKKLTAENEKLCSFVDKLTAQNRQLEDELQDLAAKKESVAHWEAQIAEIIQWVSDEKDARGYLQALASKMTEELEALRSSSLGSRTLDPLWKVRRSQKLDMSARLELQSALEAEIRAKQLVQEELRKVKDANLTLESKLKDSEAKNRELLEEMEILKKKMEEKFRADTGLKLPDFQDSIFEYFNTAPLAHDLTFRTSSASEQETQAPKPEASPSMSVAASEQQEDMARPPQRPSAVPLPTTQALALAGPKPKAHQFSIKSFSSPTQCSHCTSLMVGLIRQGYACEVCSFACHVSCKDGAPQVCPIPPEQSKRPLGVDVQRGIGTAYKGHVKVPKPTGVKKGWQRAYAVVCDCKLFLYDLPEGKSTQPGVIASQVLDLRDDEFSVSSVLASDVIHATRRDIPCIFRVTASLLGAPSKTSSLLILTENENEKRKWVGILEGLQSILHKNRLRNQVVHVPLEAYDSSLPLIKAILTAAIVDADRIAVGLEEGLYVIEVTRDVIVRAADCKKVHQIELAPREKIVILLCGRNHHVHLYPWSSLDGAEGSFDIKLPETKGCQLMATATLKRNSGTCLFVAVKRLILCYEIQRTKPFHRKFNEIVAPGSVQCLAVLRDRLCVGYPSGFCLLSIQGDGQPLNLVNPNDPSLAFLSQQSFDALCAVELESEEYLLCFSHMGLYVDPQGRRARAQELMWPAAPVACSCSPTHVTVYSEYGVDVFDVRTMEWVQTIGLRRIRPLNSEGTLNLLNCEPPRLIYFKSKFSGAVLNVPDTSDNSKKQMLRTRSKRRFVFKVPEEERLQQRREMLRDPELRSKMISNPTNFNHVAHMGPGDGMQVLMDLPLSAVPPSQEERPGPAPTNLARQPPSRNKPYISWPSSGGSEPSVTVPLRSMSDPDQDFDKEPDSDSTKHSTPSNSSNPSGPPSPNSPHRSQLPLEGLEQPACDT
Sequence of Bone morphogenetic protein receptor type-1B (O00238 whole entry): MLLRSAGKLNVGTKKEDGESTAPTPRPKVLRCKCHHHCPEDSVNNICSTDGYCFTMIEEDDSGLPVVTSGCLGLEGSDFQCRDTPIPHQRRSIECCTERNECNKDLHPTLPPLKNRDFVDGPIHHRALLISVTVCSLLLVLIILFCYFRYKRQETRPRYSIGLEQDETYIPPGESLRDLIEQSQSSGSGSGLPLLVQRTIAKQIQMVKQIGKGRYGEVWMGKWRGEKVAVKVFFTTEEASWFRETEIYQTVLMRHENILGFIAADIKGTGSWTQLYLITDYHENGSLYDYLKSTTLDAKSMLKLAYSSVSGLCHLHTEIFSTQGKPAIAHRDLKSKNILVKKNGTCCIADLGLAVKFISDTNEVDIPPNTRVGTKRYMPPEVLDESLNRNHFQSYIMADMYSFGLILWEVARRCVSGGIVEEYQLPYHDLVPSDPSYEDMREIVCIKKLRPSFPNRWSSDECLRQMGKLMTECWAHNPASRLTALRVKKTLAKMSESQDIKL
Sequence of Dual specificity mitogen-activated protein kinase kinase 2 (P36507 whole entry): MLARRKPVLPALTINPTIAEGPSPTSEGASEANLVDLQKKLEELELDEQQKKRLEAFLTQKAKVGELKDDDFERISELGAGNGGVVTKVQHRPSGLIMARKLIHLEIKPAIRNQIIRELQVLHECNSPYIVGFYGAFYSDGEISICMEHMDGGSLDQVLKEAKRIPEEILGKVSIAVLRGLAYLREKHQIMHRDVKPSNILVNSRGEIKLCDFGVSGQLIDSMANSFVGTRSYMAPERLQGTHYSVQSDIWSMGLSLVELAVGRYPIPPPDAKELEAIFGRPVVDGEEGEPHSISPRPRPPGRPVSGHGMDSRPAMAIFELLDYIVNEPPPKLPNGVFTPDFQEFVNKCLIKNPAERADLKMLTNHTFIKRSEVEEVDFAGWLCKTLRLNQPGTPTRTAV
Sequence of 5'-AMP-activated protein kinase catalytic subunit alpha-1 (Q13131 whole entry): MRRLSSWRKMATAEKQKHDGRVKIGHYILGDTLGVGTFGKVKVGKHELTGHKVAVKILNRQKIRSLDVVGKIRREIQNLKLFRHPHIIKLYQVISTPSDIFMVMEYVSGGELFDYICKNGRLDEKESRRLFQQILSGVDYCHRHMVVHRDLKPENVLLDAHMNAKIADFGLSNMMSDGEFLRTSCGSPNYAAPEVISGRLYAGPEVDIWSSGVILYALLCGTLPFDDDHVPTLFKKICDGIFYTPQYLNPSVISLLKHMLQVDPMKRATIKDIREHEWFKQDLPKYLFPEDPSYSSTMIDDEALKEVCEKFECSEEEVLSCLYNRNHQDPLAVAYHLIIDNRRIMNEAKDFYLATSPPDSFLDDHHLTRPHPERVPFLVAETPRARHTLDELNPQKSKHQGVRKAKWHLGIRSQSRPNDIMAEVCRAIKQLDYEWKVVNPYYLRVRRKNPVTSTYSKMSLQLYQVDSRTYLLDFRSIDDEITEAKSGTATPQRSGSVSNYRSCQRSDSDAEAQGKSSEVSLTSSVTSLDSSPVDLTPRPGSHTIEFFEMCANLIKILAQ

| Kd [1] | Kd [2] | Kd [3] | Kd [4] | Kd (Pyridoxal kinase) | Kd [5] | Kd [6] | Kd [7] | Kd [8] | Kd [9] | Kd [10] | Kd [11] | Kd [12] | Structure (SMILES) |
| --- | --- | --- | --- | --- | --- | --- | --- | --- | --- | --- | --- | --- | --- |
| > 30 µM (inactive) | > 30 µM (inactive) | > 30 µM (inactive) | > 30 µM (inactive) | > 30 µM (inactive) | > 30 µM (inactive) | > 30 µM (inactive) | > 30 µM (inactive) | > 30 µM (inactive) | > 30 µM (inactive) | > 30 µM (inactive) | > 30 µM (inactive) | > 30 µM (inactive) | COc1ccc(-c2ccc3ncc4c(c3c2)n(-c2ccc(N3CCNCC3)c(C(F)(F)F)c2)c(=O)n4C)cn1 [BGT-226 FREE BASE] |
| > 30 µM (inactive) | > 30 µM (inactive) | > 30 µM (inactive) | > 30 µM (inactive) | > 30 µM (inactive) | > 30 µM (inactive) | > 30 µM (inactive) | > 30 µM (inactive) | > 30 µM (inactive) | > 30 µM (inactive) | > 30 µM (inactive) | > 30 µM (inactive) | 45.1 µM (active) | COc1cc2ncnc3c2cc1OCCCCCN(C)Cc1ccc(Br)cc1N3 [JNJ-26483327] |
| > 30 µM (inactive) | > 30 µM (inactive) | > 30 µM (inactive) | > 30 µM (inactive) | > 30 µM (inactive) | > 30 µM (inactive) | > 30 µM (inactive) | > 30 µM (inactive) | > 30 µM (inactive) | > 30 µM (inactive) | > 30 µM (inactive) | > 30 µM (inactive) | > 30 µM (inactive) | O=C(Nc1ccc(OC(F)(F)F)cc1)c1sccc1NCc1ccnc2ccccc12 [OSI-930] |
| > 30 µM (inactive) | > 30 µM (inactive) | 15.4 µM (active) | > 30 µM (inactive) | > 30 µM (inactive) | > 30 µM (inactive) | > 30 µM (inactive) | > 30 µM (inactive) | > 30 µM (inactive) | > 30 µM (inactive) | > 30 µM (inactive) | > 30 µM (inactive) | 0.096 µM (active) | O=C(O)c1ccc2c(c1)nc(Nc1cccc(Cl)c1)c1ccncc12 [SILMITASERTIB] |
| > 30 µM (inactive) | > 30 µM (inactive) | > 30 µM (inactive) | > 30 µM (inactive) | > 30 µM (inactive) | > 30 µM (inactive) | > 30 µM (inactive) | > 30 µM (inactive) | > 30 µM (inactive) | > 30 µM (inactive) | > 30 µM (inactive) | > 30 µM (inactive) | > 30 µM (inactive) | COc1cc2ncnc(Nc3ccc(F)c(Cl)c3)c2cc1NC(=O)/C=C/CN1CCCCC1 [DACOMITINIB ANHYDROUS] |
| > 30 µM (inactive) | > 30 µM (inactive) | > 30 µM (inactive) | > 30 µM (inactive) | > 30 µM (inactive) | > 30 µM (inactive) | > 30 µM (inactive) | > 30 µM (inactive) | > 30 µM (inactive) | > 30 µM (inactive) | > 30 µM (inactive) | > 30 µM (inactive) | > 30 µM (inactive) | COc1ccc2c(OCc3nnc4ccc(-c5ccccc5)nn34)ccnc2c1 [AMG-208] |
| 0.038 µM (active) | > 30 µM (inactive) | > 30 µM (inactive) | > 30 µM (inactive) | > 30 µM (inactive) | > 30 µM (inactive) | > 30 µM (inactive) | > 30 µM (inactive) | > 30 µM (inactive) | > 30 µM (inactive) | > 30 µM (inactive) | > 30 µM (inactive) | > 30 µM (inactive) | O=C(NC[C@H](O)CO)c1ccncc1Nc1ccc(I)cc1F [PIMASERTIB] |
| > 30 µM (inactive) | > 30 µM (inactive) | > 30 µM (inactive) | > 30 µM (inactive) | > 30 µM (inactive) | > 30 µM (inactive) | > 30 µM (inactive) | 4.13 µM (active) | > 30 µM (inactive) | > 30 µM (inactive) | > 30 µM (inactive) | > 30 µM (inactive) | 0.227 µM (active) | C#Cc1cccc(Nc2ncnc3cc4c(cc23)OCCOCCOCCO4)c1 [ICOTINIB] |

| Structure (SMILES) | Kd [1] | Kd [2] | Kd [3] | Kd [4] | Kd (Pyridoxal kinase) | Kd [5] | Kd [6] | Kd [7] | Kd [8] | Kd [9] | Kd [10] | Kd [11] | Kd [12] |
| --- | --- | --- | --- | --- | --- | --- | --- | --- | --- | --- | --- | --- | --- |
| C=CCN(/C=C1/C(=O)O[C@H](COC)[C@@]2(C)C1=C(O)C(=O)C1=C2[C@H](OC(C)=O)C[C@]2(C)C(=O)CC[C@@H]12)CC=C [SONOLISIB] | > 30 µM (inactive) | > 30 µM (inactive) | > 30 µM (inactive) | > 30 µM (inactive) | > 30 µM (inactive) | > 30 µM (inactive) | > 30 µM (inactive) | > 30 µM (inactive) | > 30 µM (inactive) | > 30 µM (inactive) | > 30 µM (inactive) | > 30 µM (inactive) | > 30 µM (inactive) |
| C=CC(=O)Nc1cc(Nc2nccc(-c3cn(C)c4ccccc34)n2)c(OC)cc1N(C)CCN(C)C [OSIMERTINIB] | > 30 µM (inactive) | > 30 µM (inactive) | > 30 µM (inactive) | > 30 µM (inactive) | > 30 µM (inactive) | > 30 µM (inactive) | > 30 µM (inactive) | > 30 µM (inactive) | > 30 µM (inactive) | > 30 µM (inactive) | > 30 µM (inactive) | > 30 µM (inactive) | > 30 µM (inactive) |
| Cc1c(Cn2c(C)nc3c(C(=O)O)cc(N4CCOCC4)cc32)cccc1C(F)(F)F [GSK-2636771] | > 30 µM (inactive) | > 30 µM (inactive) | > 30 µM (inactive) | > 30 µM (inactive) | > 30 µM (inactive) | > 30 µM (inactive) | > 30 µM (inactive) | > 30 µM (inactive) | > 30 µM (inactive) | > 30 µM (inactive) | > 30 µM (inactive) | > 30 µM (inactive) | > 30 µM (inactive) |
